# Data as given in patent publication US20100069345A1, “Lanthanide-porphyrin complexes as anti-tumor agents” (priority 2005, published 2010).
# Experiments:
# [1] = system: human breast cancer cells (MCF-7); experiment: MTT cell viability assay, MCF-7; type: cell-based
# Text: (§1) Human cervical epitheloid carcinoma cells (HeLa), human hepatocellular carcinoma cells (HepG2 and Hep3B), human breast cancer cells (MCF-7), human coloadenocarcinoma cells (HCT-8), and normal human lung fibroblast cells (CCD-19Lu) were purchased from American Type Culture Collection (ATCC) Rockville, Md., USA. The human hepatocellular cancinoma cells QGY-7703, and the multi-drug resistant cell line QGY-TR50 derived from QGY-7703, were generously provided by Prof. Yong Xie (The Hong Kong University of Science and Technology, Hong Kong PRC). QGY-TR50 cells were isolated and cultured as described (J. Zhou, S. C. Cheng, D. Luo, Y. Xie Biochem. Biophys. Res. Commun. 2001, 280, 1237-1242). Human nasopharyngeal carcinoma cells (SUNE1 and its cisplatin-resistant variant—CNE2) were derived from poorly differentiated NPC in Chinese patients and were generously provided by Dr. S. W. Tsao (The University of Hong Kong, Hong Kong PRC). Cell culture flasks and 96-well microtitre plates were from Nalge Nunc Int. Culture medium, other medium constituents and phosphate buffer saline (PBS) were obtained by Gibco BRL Rockville, Md., USA. Cell Proliferation kit I (MTT) was purchased from Roche. Mannheim, Germany.
# [2] = system: human hepatocellular carcinoma cells (HepG2); experiment: MTT cell viability assay, HepG2; type: cell-based
# Text: as §1
# [3] = system: human hepatocellular cancinoma cells QGY-7703; experiment: MTT cell viability assay, QGY-7703; type: cell-based
# Text: as §1
# [4] = system: calf thymus DNA; experiment: Absorption titration with calf thymus DNA; type: binding; settings: Tris buffer
# Protocol: The calf thymus DNA was purchased from Sigma-Aldrich Chemical Co. and was purified by phenol-chloroform extraction. The DNA was dissolved in buffer (5 mM Tris, 5 mM NaCl, pH 7.2). The concentration (per base pair) or calf thymus DNA was determined spectophotometrically on the basic of ε260, 13200 M^−1cm^−1bp.
# Absorption Titration. Studying the interaction between drugs and DNA is imperative to pharmaceutical chemistry. Since complexation between a ligand molecule and a nucleic acid leads to optical changes, its binding can be studied using spectroscopic methods like fluorescence and electronic absorption spectroscopy (C. V. Kumar, E. H. Asuncion, J. Am. Chem. Soc. 1993, 115, 8547-8553). The binding interactions of lanthanide (III) porphyrin complexes with calf thymus DNA were investigated using UV-vis spectroscopy and depicted in FIGS. 9 and 10 (selected absorption curves were shown for clear plot). By monitoring wavelengths at 410 nm (complex 1) and 430 nm (complex 2b), successive additions of calf thymus DNA to the respective complexes in Tris buffer solution containing <5% DMSO were done until saturation. Moderate hyprochromicities of 27% and 23% in complexes 1 and 2b were found without significant bathochromic spectral shift. […] The values of binding constant K were calculated from a plot of D/Δεap versus D based on the following equation:
# Where D is the concentration of DNA, Δεap=|ΔεA−ΔεB| wherein εA=Aobs/[complex], and Δε=|ΔεB−ΔεF|; εB and εF correspond to the extinction coefficients of DNA-bound lanthanide(III) porphyrin complex adduct and its free complex, respectively. By monitoring absorbance at 410 nm (complex 1) and 430 nm (complex 2b), plots of D/Δεap against D are inserted in FIGS. 9 and 10. Linear curves in two graphs were plotted with slopes of 4.63×10^−5 (complex 1) and 3.60×10^−5 (complex 2b) (both R=0.99).
# [5] = system: PARP; experiment: Western blotting analysis, PARP; type: cell-based, human; settings: HeLa, 2 μM, after the treatment
# Protocol: Cells were washed in cold phosphate-buffered saline (PBS) at 4° C. and lysed in a buffer containing 0.05 M Tis.HCl (pH 7.5), 0.25 M NaCl, 0.005 M EDTA, 0.05 M NaF, 1 mM DTT and 1% Triton. Cell lysates were collected and the protein concentration of cell lysates was measured using a Protein detection kit (Bio-Rad). Equal amount of proteins was resolved in a 12% SDS-PAGE gel and transferred onto nitrocellulose membranes. The membrane was blocked with a blocking solution (1×TBS, 0.1% Tween-20 with 5% non-fat dry milk) at room temperature for 1 h, and washed three times with washing buffer (1×TBS, 0.1% Tween-20) for 5 min each. The membrane was then incubated with primary antibody (Caspase 3, Bid, PARP and β-Actin respectively) for overnight at 4° C. The membrane was washed three times with washing buffer for 5 min each before incubation with the corresponding secondary antibody (horse anti-mouse IgG or goat anti-rabbit IgG). Membrane was washed again and signals were detected using an ECL detection kit (Amersham Pharmacia Biotech) followed by the exposure to X-ray films (Fujifilm).
# After treatment with complex 1 for different time intervals, the expressions of caspase 3, Bid and PARP were detected by the Western blotting analysis. […] Moreover, treatment with complex 1 leads to a reduction in the level of un-cleaved Bid.
# [6] = system: LC3; experiment: Subcellular distribution of GFP-LC3; type: cell-based, human; settings: HeLa transfected with GFP-LC3, 1 μM, 1-4 hours
# Protocol: Subcellular Distribution of LC3. HeLa cells were transiently transfected with a plasmid expressing green fluorescent protein-tagged LC3 (GFP-LC3) using GeneJuice (Novagen, USA). After overnight incubation, HeLa cells were treated 1 (1 μM) for 1, 2, 3, and 4 hours respectively. Green fluorescence of GFP-LC3 was examined under the Olympus IX71 microscope (Melville, N.Y.). Images were captured with CCD digital camera RT COLOR, Spot (Diagnostic Instruments, Inc., Melville, N.Y.).
# The redistribution of microtubule-associated protein 1 light chain 3 (LC3) was also examined. LC3 is a maker of autophagosomes in mammalian cells which the localization changes from a diffuse cytosolic pattern to a punctuate pattern representing its recruitment to the autophagosomal membrane during the induction of autophagy. HeLa cells were transfected with plasmid encoded a fusion protein of GFP and LC3 (GFP-LC3), so that the cellular trafficking of LC3 can be directly visualized by live fluorescence microscopy.
# [7] = IC50 of cisplatin divided by IC50 of complex
substance,measurement,setting,value
[Yb2(OEP)2](μ-OH)2 [Complex 1],"IC50 ratio cisplatin/complex, MCF-7",[1]; [7],63.89
same,IC50,"[1]; MTT, 37° C., 48 h, mean ± SD",550 nM
same,"cytotoxic activity toward breast cancer cell line (MCF-7), times higher than that of cisplatin",[1]; compared with cisplatin,60 times
same,"IC50 ratio cisplatin/complex, HepG2",[2]; [7],22.7
same,IC50,"[2]; MTT, 37° C., 48 h, mean ± SD",210 ± 10 nM
same,"IC50 ratio cisplatin/complex, QGY-7703",[3]; [7],763
same,IC50,"[3]; MTT, 37° C., 48 h, mean ± SD",60 nM
same,times more effective than cisplatin in eradicating QGY-7703 human liver cancer cell line,[3]; compared with cisplatin,760 times
same,hyprochromicity on addition of calf thymus DNA,"[4]; <5% DMSO, until saturation, 410 nm (1), 430 nm (2b)",27%
same,binding constant K with calf thymus DNA,"[4]; UV-vis absorption titration, 20° C.",(1.59±0.3)×10^6 mol^−1dm^3
same,level of cleaved PARP (85 kDa),[5],gradual increase
same,redistribution of GFP-LC3,[6],time-dependent increase in punctuated green fluorescence
